# Reference: patent publication US9144238B2, “Active compound combinations” (BAYER INTELLECTUAL PROPERTY GMBH, priority 2011, dated 2015)
# Read-outs that look alike come from different tables or passages of the source.
# How the values were obtained:
# Phytophthora infestans = assay: whole plant or invertebrate; format: in vivo; details: Phytophthora infestans, 72 h, tomatoes; for pest or weed control at 0.01 ppm: 0.01 ppm a.i.; for pest or weed control at 0.0025 ppm: 0.0025 ppm a.i.; for pest or weed control at 0.005 ppm: 0.005 ppm a.i.; for pest or weed control at 10 ppm: 10 ppm a.i.
# Alternaria solani = assay: whole plant or invertebrate; format: in vivo; details: for Efficacy in % found: in vivo
# Venturia inaequalis = assay: Venturia test (apples)/preventive; format: in vivo; details: Venturia inaequalis, 240 h, read-out: Efficacy in % found; for pest or weed control at 25 ppm: Table 10, 25 ppm a.i.; for pest or weed control at 50 ppm: Table 11, 50 ppm a.i.
# Method: (§1) To produce a suitable preparation of active compound, 1 part by weight of active compound is mixed with the stated amounts of solvent and emulsifier, and the concentrate is diluted with water to the desired concentration.
# To test for preventive activity, young plants are sprayed with the preparation of active compound at the stated rate of application. After the spray coating has dried on, the plants are inoculated with an aqueous conidia suspension of the causal agent of apple scab (Venturia inaequalis) and then remain for 1 day in an incubation cabinet at approximately 20° C. and a relative atmospheric humidity of 100%.
# The plants are then placed in a greenhouse at approximately 21° C. and a relative atmospheric humidity of approximately 90%.
# (§2) The test is evaluated 10 days after the inoculation. 0% means an efficacy which corresponds to that of the untreated control, while an efficacy of 100% means that no disease is observed.
# Botrytis cinerea = assay: Botrytis test (beans)/preventive; format: in vivo
# Method: as §1
# To test for preventive activity, young plants are sprayed with the preparation of active compound. After the spray coating has dried on, 2 small pieces of agar covered with growth of Botrytis cinerea are placed on each leaf. The inoculated plants are placed in a darkened chamber at 20° C. and a relative atmospheric humidity of 100%.
# 2 days after the inoculation, the size of the lesions on the leaves is evaluated. 0% means an efficacy which corresponds to that of the untreated control, while an efficacy of 100% means that no disease is observed.
# as §2
# Sphaerotheca fuliginea = assay: Sphaerotheca test (cucumbers)/preventive; format: in vivo
# Method: as §1
# To test for preventive activity, young plants are sprayed with the preparation of active compound at the stated rate of application. After the spray coating has dried on, the plants are inoculated with an aqueous spore suspension of Sphaerotheca fuliginea. The plants are then placed in a greenhouse at approximately 23° C. and a relative atmospheric humidity of approximately 70%.
# The test is evaluated 7 days after the inoculation. 0% means an efficacy which corresponds to that of the untreated control, while an efficacy of 100% means that no disease is observed.
# as §2
# [1] = pH 2.3
# Method: (§3) Measurement of log P values was performed according EEC directive 79/831 Annex V.A8 by HPLC (High Performance Liquid
# (§4) Chromatography) on reversed phase columns with the following methods:
# (§5) ^[a]Measurement was done at pH 2.3 with 0.1% phosphoric acid and acetonitrile as eluent.
# [2] = read-out: Efficacy in % found, Table 1
# [3] = read-out: Efficacy in % found, Table 2
# [4] = read-out: Efficacy in % found, Table 3
# [5] = read-out: Efficacy in % found, Table 4
# [6] = read-out: Efficacy in % found, Table 5
# [7] = Alternaria solani, 72 h, read-out: Efficacy in % found
# Method for physchem: as §3, §4, §5
molecule,measurement,setting,value
"C#CCOc1ccccc1C1CC(c2csc(C3CCN(C(=O)Cn4nc(C(F)F)cc4C(F)F)CC3)n2)=NO1 (centres unmarked) [(I-1), 2-[3,5-bis(difluoromethyl)-1H-pyrazol-1-yl]-1-[4-(4-{5-[2-(prop-2-yn-1-yloxy)phenyl]-4,5-dihydro-1,2-oxazol-3-yl}-1,3-thiazol-2-yl)piperidin-1-yl]ethanone]",pest or weed control at 0.01 ppm,Phytophthora infestans; [2],0%
same,pest or weed control at 0.0025 ppm,Phytophthora infestans; [3],52%
same,pest or weed control at 0.01 ppm,Phytophthora infestans; [3],42%
same,pest or weed control at 0.01 ppm,Phytophthora infestans; [4],29%
same,pest or weed control at 0.01 ppm,Phytophthora infestans; [5],15%
same,pest or weed control at 0.0025 ppm,Phytophthora infestans; [6],64%
same,pest or weed control at 50 ppm,Alternaria solani; [7],21%
same,pest or weed control at 100 ppm,Alternaria solani; [7],0%
same,pest or weed control at 25 ppm,Venturia inaequalis,0%
same,pest or weed control at 100 ppm,"Venturia inaequalis; Table 10, 100 ppm a.i.",8%
same,pest or weed control at 50 ppm,Venturia inaequalis,0%
same,pest or weed control at 100 ppm,"Venturia inaequalis; Table 11, 100 ppm a.i.",0%
same,Efficacy in % found,"Botrytis cinerea; Table 12, 25 ppm a.i.",15%
same,Efficacy in % found,"Botrytis cinerea; Table 12, 50 ppm a.i.",15%
same,Efficacy in % found,"Sphaerotheca fuliginea; Table 13, 50 ppm a.i.",0%
same,chromatographic logP,physchem; pH 2.7,3.24
same,chromatographic logP,physchem; pH 7.8,3.34
mancozeb [5.23],Efficacy in % found,Alternaria solani,0%
same,Efficacy in % found,"Botrytis cinerea; Table 12, 5 ppm a.i.",0%
"N#Cc1c(Cl)c(Cl)c(Cl)c(C#N)c1Cl [5.4, chlorothalonil]",Efficacy in % found,"Botrytis cinerea; Table 12, 5 ppm a.i.",8%
"O=C(Nc1ccccc1-c1ccc(Cl)cc1)c1cccnc1Cl [2.2, boscalid]",pest or weed control at 12.5 ppm,"Venturia inaequalis; Table 10, 12.5 ppm a.i.",66%
same,Efficacy in % found,"Sphaerotheca fuliginea; Table 13, 25 ppm a.i.",67%
"O=C(Cn1nc(C(F)F)cc1C(F)F)N1CCC(c2nc(C3=NOC(c4c(F)ccc(O)c4F)C3)cs2)CC1 (centres unmarked) [2-[3,5-bis(difluoromethyl)-1H-pyrazol-1-yl]-1-(4-{4-[5-(2,6-difluoro-3-hydroxyphenyl)-4,5-dihydro-1,2-oxazol-3-yl]-1,3-thiazol-2-yl}piperidin-1-yl)ethanone]",chromatographic logP,physchem; pH 2.7,2.61
"C#CCOc1cccc(F)c1C1CC(c2csc(C3CCN(C(=O)Cn4nc(C(F)F)cc4C(F)F)CC3)n2)=NO1 (centres unmarked) [(I-5), 2-[3,5-bis(difluoromethyl)-1H-pyrazol-1-yl]-1-[4-(4-{5-[2-fluoro-6-(prop-2-yn-1-yloxy)phenyl]-4,5-dihydro-1,2-oxazol-3-yl}-1,3-thiazol-2-yl)piperidin-1-yl]ethanone]",pest or weed control at 0.01 ppm,Phytophthora infestans; [2],62%
same,pest or weed control at 0.005 ppm,Phytophthora infestans; [3],43%
same,pest or weed control at 50 ppm,Alternaria solani; [7],15%
same,Efficacy in % found,Alternaria solani,29%
same,pest or weed control at 50 ppm,Venturia inaequalis,0%
same,pest or weed control at 100 ppm,"Venturia inaequalis; Table 11, 100 ppm a.i.",0%
same,Efficacy in % found,"Botrytis cinerea; Table 12, 25 ppm a.i.",10%
same,Efficacy in % found,"Botrytis cinerea; Table 12, 100 ppm a.i.",38%
same,chromatographic logP,physchem; pH 2.7,3.15
same,chromatographic logP,physchem; pH 7.8,3.18
"C#CCOc1c(F)cccc1C1CC(c2csc(C3CCN(C(=O)Cn4nc(C(F)F)cc4C(F)F)CC3)n2)=NO1 (centres unmarked) [(I-10), 2-[3,5-bis(difluoromethyl)-1H-pyrazol-1-yl]-1-[4-(4-{5-[3-fluoro-2-(prop-2-yn-1-yloxy)phenyl]-4,5-dihydro-1,2-oxazol-3-yl}-1,3-thiazol-2-yl)piperidin-1-yl]ethanone]",chromatographic logP,physchem; pH 2.7,3.37
same,chromatographic logP,physchem; pH 7.8,3.48
"C#CCOc1cccc(Cl)c1C1CC(c2csc(C3CCN(C(=O)Cn4nc(C(F)F)cc4C(F)F)CC3)n2)=NO1 (centres unmarked) [(I-6), 2-[3,5-bis(difluoromethyl)-1H-pyrazol-1-yl]-1-[4-(4-{5-[2-chloro-6-(prop-2-yn-1-yloxy)phenyl]-4,5-dihydro-1,2-oxazol-3-yl}-1,3-thiazol-2-yl)piperidin-1-yl]ethanone]",pest or weed control at 0.005 ppm,Phytophthora infestans; [5],35%
same,pest or weed control at 0.0025 ppm,Phytophthora infestans; [6],73%
same,pest or weed control at 25 ppm,Alternaria solani; [7],30%
same,pest or weed control at 50 ppm,Alternaria solani; [7],35%
same,pest or weed control at 100 ppm,Alternaria solani; [7],41%
same,Efficacy in % found,Alternaria solani,29%
same,pest or weed control at 25 ppm,Venturia inaequalis,0%
same,pest or weed control at 100 ppm,"Venturia inaequalis; Table 10, 100 ppm a.i.",4%
same,pest or weed control at 50 ppm,Venturia inaequalis,13%
same,pest or weed control at 100 ppm,"Venturia inaequalis; Table 11, 100 ppm a.i.",38%
same,Efficacy in % found,"Sphaerotheca fuliginea; Table 13, 50 ppm a.i.",0%
same,chromatographic logP,physchem; pH 2.7,3.4
same,chromatographic logP,[1],3.51
"O=C1c2ccccc2C(=O)N1SC(Cl)(Cl)Cl [5.16, folpet]",pest or weed control at 5 ppm,"Phytophthora infestans; read-out: Efficacy in % found, Table 2, 5 ppm a.i.",3%
same,pest or weed control at 10 ppm,Phytophthora infestans; [3],3%
same,pest or weed control at 5 ppm,Alternaria solani; [7],21%
same,pest or weed control at 10 ppm,"Venturia inaequalis; Table 11, 10 ppm a.i.",43%
same,Efficacy in % found,"Botrytis cinerea; Table 12, 10 ppm a.i.",31%
"Cc1cc(C)nc(Nc2ccccc2)n1 [7.7, pyrimethanil]",pest or weed control at 10 ppm,Phytophthora infestans; [4],10%
same,pest or weed control at 20 ppm,Alternaria solani; [7],4%
same,Efficacy in % found,"Botrytis cinerea; Table 12, 10 ppm a.i.",15%
